Data on 28 compounds can be found in patent US10189859B2, “Derivatives of 6-(2,3-dichlorophenyl)-1,2,4-triazin-5-amine” (Nektar Therapeutics, priority 2013, dated 2019).

Data set [1] is described as follows: Pharmacokinetics after intravenous or oral dosing, plasma LC/MS/MS. Format: in vivo. The settings on record: fasted male Sprague Dawley rats. How it is done:
Fasted, male Sprague Dawley rats were dosed intravenously or orally. Blood samples were collected at pre-determined time points and plasma was separated. Test article concentrations were determined in plasma by a LC/MS/MS method. Non compartmental analysis was performed to estimate the area under the plasma concentration vs. time curve (AUC). Clearance parameters (CL), bioavailabilities (F) and half-lives were calculated.

For data set [2], the target named is Nav1.7 sodium channels (human SCN9A gene) (Homo sapiens (Human), UniProt Q15858). The data set is described as follows: Automated patch clamp (IonWorks Barracuda) of Nav1.7 stably expressed in CHO cells. Format: cell-based. How it is done:
The potencies of the compounds provided herein to block specific Na+ channels was measured using automated patch clamp electrophysiologically of Nav1.7 sodium channels (human SCN9A gene) stably expressed in CHO cells using the IonWorks™ Barracuda system. Currents were measured from the whole cell patch configuration. From a holding potential of −90 mV, membranes were subjected to a 200 ms pre-pulse to −120 mV, then pulsed to 0 mV to measure blockade of the tonic (resting) state. Inactivated state block was elicited by repolarization to −100 mV (20 ms pulse duration), followed by depolarization to 0 mV (20 ms pulse duration). Peak inward Na+ currents were measured in the presence of vehicle or various concentrations of the test compound to determine the percent block of current. Concentration-response relationships were used to calculate IC50 values for the illustrative compounds.
Background: The patch-clamp technique gives a direct electrical read-out from membranes.

[3] abbreviates: inactivated state block, CHO cells, read-out: Inactivated state IC50.
Where [4] appears, read: tonic (resting) state block, CHO cells, read-out: Tonic state IC50.
Where [5] appears, read: read-out: Inactivated state IC50.

Values joined by “and” are separate entries in the source; they are usually repeats but may differ in a detail not shown here. Equal values may be shown once. Read-outs that look alike come from different tables or passages of the source.

Chain of Nav1.7 sodium channels (human SCN9A gene) (Q15858 whole entry): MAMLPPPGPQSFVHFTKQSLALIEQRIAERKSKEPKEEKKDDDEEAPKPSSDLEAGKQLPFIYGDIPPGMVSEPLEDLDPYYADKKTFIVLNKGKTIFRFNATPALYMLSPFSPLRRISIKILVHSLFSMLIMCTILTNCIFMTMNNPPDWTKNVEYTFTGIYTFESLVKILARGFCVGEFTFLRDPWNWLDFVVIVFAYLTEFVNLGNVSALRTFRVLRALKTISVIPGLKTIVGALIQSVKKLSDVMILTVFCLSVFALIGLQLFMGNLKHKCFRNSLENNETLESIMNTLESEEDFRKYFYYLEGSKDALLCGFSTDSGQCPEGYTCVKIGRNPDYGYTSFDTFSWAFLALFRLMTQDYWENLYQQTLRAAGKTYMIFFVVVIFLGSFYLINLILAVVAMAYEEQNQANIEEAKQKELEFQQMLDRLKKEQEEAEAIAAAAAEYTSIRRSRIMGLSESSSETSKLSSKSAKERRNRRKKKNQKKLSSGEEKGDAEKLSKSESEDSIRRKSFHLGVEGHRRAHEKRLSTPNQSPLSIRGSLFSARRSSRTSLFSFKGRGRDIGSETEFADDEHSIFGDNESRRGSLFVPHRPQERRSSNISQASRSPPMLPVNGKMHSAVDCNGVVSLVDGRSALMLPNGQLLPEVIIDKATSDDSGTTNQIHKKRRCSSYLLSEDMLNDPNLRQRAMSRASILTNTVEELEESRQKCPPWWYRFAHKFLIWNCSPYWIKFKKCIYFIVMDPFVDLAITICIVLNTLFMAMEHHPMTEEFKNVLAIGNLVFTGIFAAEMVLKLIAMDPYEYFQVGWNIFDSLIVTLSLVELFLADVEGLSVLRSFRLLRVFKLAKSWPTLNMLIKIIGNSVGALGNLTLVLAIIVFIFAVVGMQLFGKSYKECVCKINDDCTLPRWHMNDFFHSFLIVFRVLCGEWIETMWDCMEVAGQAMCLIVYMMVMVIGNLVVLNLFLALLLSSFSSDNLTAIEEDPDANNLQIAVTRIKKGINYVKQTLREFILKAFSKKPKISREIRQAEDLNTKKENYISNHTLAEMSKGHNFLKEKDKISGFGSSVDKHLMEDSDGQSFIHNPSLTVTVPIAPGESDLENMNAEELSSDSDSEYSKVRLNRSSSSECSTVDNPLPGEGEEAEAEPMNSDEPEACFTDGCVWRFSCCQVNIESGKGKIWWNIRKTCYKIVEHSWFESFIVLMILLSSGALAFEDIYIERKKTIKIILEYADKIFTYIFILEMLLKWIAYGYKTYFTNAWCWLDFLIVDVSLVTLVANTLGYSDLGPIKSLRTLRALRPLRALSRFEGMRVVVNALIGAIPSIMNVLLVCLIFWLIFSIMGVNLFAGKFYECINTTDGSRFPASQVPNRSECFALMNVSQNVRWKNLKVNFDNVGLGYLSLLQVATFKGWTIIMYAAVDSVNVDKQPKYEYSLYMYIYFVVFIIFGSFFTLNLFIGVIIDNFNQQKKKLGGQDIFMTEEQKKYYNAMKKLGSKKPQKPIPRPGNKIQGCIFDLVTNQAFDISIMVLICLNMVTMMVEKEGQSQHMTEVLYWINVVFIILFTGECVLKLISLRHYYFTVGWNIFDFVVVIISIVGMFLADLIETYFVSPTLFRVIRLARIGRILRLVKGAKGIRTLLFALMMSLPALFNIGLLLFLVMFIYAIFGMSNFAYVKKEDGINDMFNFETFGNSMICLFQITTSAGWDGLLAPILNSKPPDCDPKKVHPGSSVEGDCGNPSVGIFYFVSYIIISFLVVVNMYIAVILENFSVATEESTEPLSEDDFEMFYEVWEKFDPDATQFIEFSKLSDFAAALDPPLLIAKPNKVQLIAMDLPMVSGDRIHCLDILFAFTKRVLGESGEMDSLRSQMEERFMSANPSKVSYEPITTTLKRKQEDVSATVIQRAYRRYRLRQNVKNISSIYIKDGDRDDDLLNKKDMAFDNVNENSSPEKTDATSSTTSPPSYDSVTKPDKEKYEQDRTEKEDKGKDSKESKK

For the compound `Nc1nc(N2CCN(CC(O)COC(F)(F)F)CC2)nnc1-c1cccc(Cl)c1Cl` (stereo not drawn) [Compound 27, 1-(4-(5-Amino-6-(2,3-dichlorophenyl)-1,2,4-triazin-3-yl)piperazin-1-yl)-3-(trifluoromethoxy)propan-2-ol], in data set [1], the “pharmacokinetics (qualitative ranking of the compounds tested)” value is “most favorable pharmacokinetics” and the “exposure after oral dosing (qualitative ranking)” value (“exposure after oral dosing” for short) was “best exposure after oral dosing”.

Turning to `CC(CO)(CO)Nc1nnc(-c2cccc(Cl)c2Cl)c(N)n1` [Compound 47, 2-((5-Amino-6-(2,3-dichlorophenyl)-1,2,4-triazin-3-yl)amino)-2-methylpropane-1,3-diol], in data set [1], the “exposure after oral dosing” value is listed as “best exposure after oral dosing”.

Take `COCCOCC(C)(CO)Nc1nnc(-c2cccc(Cl)c2Cl)c(N)n1` (stereo not drawn) [Compound 49, 2-((5-Amino-6-(2,3-dichlorophenyl)-1,2,4-triazin-3-yl)amino)-3-(2-methoxyethoxy)-2-methylpropan-1-ol]: in data set [1], the “exposure after oral dosing” value is given as “best exposure after oral dosing”.

Usually IC50 stands for the concentration that inhibits the measured activity by half. As to `COCCOCCOCC(O)CNc1nnc(-c2cccc(Cl)c2Cl)c(N)n1` (stereo not drawn) [Compound 153, 1-((5-Amino-6-(2,3-dichlorophenyl)-1,2,4-triazin-3-yl)amino)-3-(2-(2-methoxyethoxy)ethoxy)propan-2-ol], the IC50 in data set [2] (setting [3]) is greater than 300 µM; in data set [2] (setting [4]), greater than 200 µM.

Take `COC[C@@H](O)CN[C@@H]1CCN(c2nnc(-c3cccc(Cl)c3Cl)c(N)n2)C1` [Compound 159, (S)-1-(((R)-1-(5-amino-6-(2,3-dichlorophenyl)-1,2,4-triazin-3-yl)pyrrolidin-3-yl)amino)-3-methoxypropan-2-ol]: the IC50 in data set [2] (setting [3]) was 289 µM; in data set [2] (setting [4]) it was greater than 200 µM.

As to `COC[C@@H](O)CN(C)CC1CN(c2nnc(-c3cccc(Cl)c3Cl)c(N)n2)C1` [Compound 160, (S)-1-(((1-(5-amino-6-(2,3-dichlorophenyl)-1,2,4-triazin-3-yl)azetidin-3-yl)methyl)(methyl)amino)-3-methoxypropan-2-ol], the values for the 50% inhibitory concentration (IC50) in data set [2] (setting [3]) and in data set [2] (setting [4]) were 292 µM and greater than 200 µM, respectively.

Regarding `COC[C@@H](O)CN1CCC12CCCN(c1nnc(-c3cccc(Cl)c3Cl)c(N)n1)C2` (stereo partly drawn) [Compound 161, (2S)-1-(6-(5-amino-6-(2,3-dichlorophenyl)-1,2,4-triazin-3-yl)-1,6-diazaspiro[3.5]nonan-1-yl)-3-methoxypropan-2-ol], the half-maximal inhibitory concentration (IC50) in data set [2] (setting [3]) is 51.4 µM; in data set [2] (setting [4]) it was 147 µM.

As for `COC[C@@H](O)CNC1(C)CCN(c2nnc(-c3cccc(Cl)c3Cl)c(N)n2)C1` (stereo partly drawn) [Compound 162, (2S)-1-((1-(5-amino-6-(2,3-dichlorophenyl)-1,2,4-triazin-3-yl)-3-methylpyrrolidin-3-yl)amino)-3-methoxypropan-2-ol], the values for the IC50 in data set [2] (setting [3]) and in data set [2] (setting [4]) were 194 µM and greater than 200 µM, respectively.

In the case of `COC[C@@H](O)CNC1CN(c2nnc(-c3cccc(Cl)c3Cl)c(N)n2)C1` [Compound 163, (S)-1-((1-(5-amino-6-(2,3-dichlorophenyl)-1,2,4-triazin-3-yl)azetidin-3-yl)amino)-3-methoxypropan-2-ol], the IC50 in data set [2] (setting [3]) is greater than 300 µM; in data set [2] (setting [4]) it was greater than 200 µM.

`CN1CCN(CCOCCNc2nnc(-c3cccc(Cl)c3Cl)c(N)n2)CC1` [Compound 169, 6-(2,3-dichlorophenyl)-N3-(2-(2-(4-methylpiperazin-1-yl)ethoxy)ethyl)-1,2,4-triazine-3,5-diamine]: the IC50 in data set [2] (setting [3]) was greater than 300 µM; in data set [2] (setting [4]) it was greater than 200 µM.

Take `COCCNCCOCCNc1nnc(-c2cccc(Cl)c2Cl)c(N)n1` [Compound 173, 6-(2,3-dichlorophenyl)-N3-(2-(2-((2-methoxyethyl)amino)ethoxy)ethyl)-1,2,4-triazine-3,5-diamine]: the IC50 in data set [2] (setting [3]) was 214 µM; in data set [2] (setting [4]), greater than 200 µM.

For the compound `CC(=O)NCCOCCNc1nnc(-c2cccc(Cl)c2Cl)c(N)n1` [Compound 175, N-(2-(2-((5-amino-6-(2,3-dichlorophenyl)-1,2,4-triazin-3-yl)amino)ethoxy)ethyl)acetamide], the half-inhibitory concentration (IC50) in data set [2] (setting [3]) was greater than 300 µM; in data set [2] (setting [4]), greater than 200 µM.

As to `CS(=O)(=O)CCOCCNc1nnc(-c2cccc(Cl)c2Cl)c(N)n1` [Compound 176, 6-(2,3-dichlorophenyl)-N3-(2-(2-(methylsulfonyl)ethoxy)ethyl)-1,2,4-triazine-3,5-diamine], the IC50 is 267 µM and 181 µM in data set [2] (setting [3]); greater than 200 µM in data set [2] (setting [4]).

As for `COCCOCCOCC(C)CNc1nnc(-c2cccc(Cl)c2Cl)c(N)n1` (stereo not drawn) [Compound 177, 6-(2,3-dichlorophenyl)-N3-(3-(2-(2-methoxyethoxy)ethoxy)-2-methylpropyl)-1,2,4-triazine-3,5-diamine], the IC50 in data set [2] (setting [3]) is less than 50 µM; in data set [2] (setting [4]), greater than 200 µM.

In the case of `COCCOCCOCC(COCCOCCOC)OCCNc1nnc(-c2cccc(Cl)c2Cl)c(N)n1` [Compound 180, 6-(2,3-dichlorophenyl)-N3-(10-((2-(2-methoxyethoxy)ethoxy)methyl)-2,5,8,11-tetraoxatridecan-13-yl)-1,2,4-triazine-3,5-diamine], the IC50 in data set [2] (setting [3]) was 298 µM; in data set [2] (setting [4]), greater than 200 µM.

Regarding `CN(CCO)c1nnc(-c2cccc(Cl)c2Cl)c(N)n1` [Compound 185, 2-((5-amino-6-(2,3-dichlorophenyl)-1,2,4-triazin-3-yl)(methyl)amino)ethanol], the half-maximal inhibitory concentration (IC50) in data set [2] (setting [5]) is 176 µM; in data set [2] (read-out: Tonic state IC50), greater than 200 µM.

Turning to `COCCS(=O)(=O)CCOCCNc1nnc(-c2cccc(Cl)c2Cl)c(N)n1` [Compound 186, 6-(2,3-dichlorophenyl)-N3-(2-(2-((2-methoxyethyl)sulfonyl)ethoxy)ethyl)-1,2,4-triazine-3,5-diamine], the results for the IC50 in data set [2] (setting [3]) and in data set [2] (setting [4]) were 100 µM and greater than 200 µM, respectively.

With `C[S+]([O-])CCOCCNc1nnc(-c2cccc(Cl)c2Cl)c(N)n1` (stereo not drawn) [Compound 187, 6-(2,3-dichlorophenyl)-N3-(2-(2-(methylsulfinyl)ethoxy)ethyl)-1,2,4-triazine-3,5-diamine], the IC50 in data set [2] (setting [3]) was 160 µM; in data set [2] (setting [4]) it was greater than 200 µM.

In the case of `COCCOCC(=O)N(C)CCN(C)c1nnc(-c2cccc(Cl)c2Cl)c(N)n1` [Compound 190, N-(2-((5-amino-6-(2,3-dichlorophenyl)-1,2,4-triazin-3-yl)(methyl)amino)ethyl)-2-(2-methoxyethoxy)-N-methylacetamide], the half-inhibitory concentration (IC50) in data set [2] (setting [3]) is 273 µM; in data set [2] (setting [4]) it was greater than 200 µM.

`CN(CCOCCNc1cnc(-c2cccc(Cl)c2Cl)c(N)n1)CC(N)=O` [Compound 191, 2-((2-(2-((6-amino-5-(2,3-dichlorophenyl)pyrazin-2-yl)amino)ethoxy)ethyl)-(methyl)amino)acetamide]: the figures for the IC50 in data set [2] (setting [3]) and in data set [2] (setting [4]) were 244 µM and greater than 200 µM, respectively.

For `CN(CCN(C)c1nnc(-c2cccc(Cl)c2Cl)c(N)n1)C(=O)COCC(N)=O` [Compound 192, 2-(2-amino-2-oxoethoxy)-N-(2-((5-amino-6-(2,3-dichlorophenyl)-1,2,4-triazin-3-yl)(methyl)amino)ethyl)-N-methylacetamide], the IC50 in data set [2] (setting [3]) was greater than 300 µM; in data set [2] (setting [4]), greater than 200 µM.

On to `COCCOCCN(C)CCN(C)c1nnc(-c2cccc(Cl)c2Cl)c(N)n1` [Compound 193, 6-(2,3-dichlorophenyl)-N3-(2-((2-(2-methoxyethoxy)ethyl)(methyl)amino)ethyl)-N3-methyl-1,2,4-triazine-3,5-diamine], for which the IC50 is less than 50 µM in data set [2] (setting [3]) and 62.6 µM in data set [2] (setting [4]).

As to `NC(=O)CNCCOCCNc1nnc(-c2cccc(Cl)c2Cl)c(N)n1` [Compound 194, 2-((2-(2-((5-amino-6-(2,3-dichlorophenyl)-1,2,4-triazin-3-yl)amino)ethoxy)ethyl)amino)acetamide], the IC50 in data set [2] (setting [5]) was greater than 300 µM; in data set [2] (read-out: Tonic state IC50), greater than 200 µM.

Take `COCCOCC(=O)NCC(O)CNc1nnc(-c2cccc(Cl)c2Cl)c(N)n1` (stereo not drawn) [Compound 196, N-(3-((5-amino-6-(2,3-dichlorophenyl)-1,2,4-triazin-3-yl)amino)-2-hydroxypropyl)-2-(2-methoxyethoxy)acetamide]: the IC50 in data set [2] (setting [3]) is greater than 300 µM; in data set [2] (setting [4]) it was greater than 200 µM.

For the compound `COC(=O)COCCOCCNc1nnc(-c2cccc(Cl)c2Cl)c(N)n1` [Compound 197, methyl 2-(2-(2-((5-amino-6-(2,3-dichlorophenyl)-1,2,4-triazin-3-yl)amino)ethoxy)ethoxy)acetate], the IC50 was less than 50 µM in data set [2] (setting [3]) and greater than 200 µM in data set [2] (setting [4]).

On to `COC(=O)CNCCOCCNc1nnc(-c2cccc(Cl)c2Cl)c(N)n1` [Compound 199, methyl 2-((2-(2-((5-amino-6-(2,3-dichlorophenyl)-1,2,4-triazin-3-yl)amino)ethoxy)ethyl)amino)acetate], for which the IC50 is greater than 300 µM in data set [2] (setting [5]) and greater than 200 µM in data set [2] (read-out: Tonic state IC50).

As to `CC(C)(C)OC(=O)COCCN1CCN(c2nnc(-c3cccc(Cl)c3Cl)c(N)n2)CC1` [Compound 203, tert-butyl 2-(2-(4-(5-amino-6-(2,3-dichlorophenyl)-1,2,4-triazin-3-yl)piperazin-1-yl)ethoxy)acetate], the concentration for half-maximal inhibition (IC50) in data set [2] (setting [3]) was less than 50 µM; in data set [2] (setting [4]), 87.9 µM.

As to `CC(C)OCCOCCOCCNc1nnc(-c2cccc(Cl)c2Cl)c(N)n1` [Compound 209, 6-(2,3-dichlorophenyl)-N3-(2-(2-(2-isopropoxyethoxy)ethoxy)ethyl)-1,2,4-triazine-3,5-diamine], the IC50 in data set [2] (setting [3]) was less than 50 µM; in data set [2] (setting [4]), greater than 200 µM.
